Each structure is given as a SMILES string.

Sequence of Prostaglandin E synthase, mPGES-1 (Homo sapiens) (O14684 whole entry, looked up): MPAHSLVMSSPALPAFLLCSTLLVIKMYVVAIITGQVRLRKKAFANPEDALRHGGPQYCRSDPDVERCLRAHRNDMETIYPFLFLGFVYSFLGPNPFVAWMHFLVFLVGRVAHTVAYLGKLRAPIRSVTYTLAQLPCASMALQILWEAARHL

This experiment concerns the target Prostaglandin E synthase, mPGES-1 (Homo sapiens) (UniProt O14684). In words: Inhibition of Prostaglandin E2 synthase-1 in IL1-beta stimulated microsomal fraction of human A549 cell assessed as PGE2 level by RP-HPLC.
As a reminder, the IC50 is the concentration that inhibits the measured activity by half. As for `Oc1cccc(-c2ccc(-c3cn(CSc4ccccc4)nn3)cc2)c1` [4'-(1-Phenylsulfanylmethyl-1H-[1,2,3]triazol-4-yl)-biphenyl-3-ol], the 50% inhibitory concentration (IC50) is greater than 30 µM.
With `Oc1ccc(-c2ccc(-c3cn(CSc4ccccc4)nn3)cc2)cc1` [4'-(1-Phenylsulfanylmethyl-1H-[1,2,3]triazol-4-yl)-biphenyl-4-ol] the figure was greater than 30 µM.
Consider `Cc1ccccc1CCn1cc(-c2ccc(-c3ccc(N)cc3)cc2)nn1` [4'-[1-(2-o-Tolyl-ethyl)-1H-[1,2,3]triazol-4-yl]-biphenyl-4-ylamine], for which the IC50 is greater than 30 µM.
With `Oc1ccc(-c2ccc(-c3cn(CCCc4ccccc4)nn3)cc2)cc1` [4'-[1-(3-Phenyl-propyl)-1H-[1,2,3]triazol-4-yl]-biphenyl-4-ol] the figure was greater than 30 µM.
For the compound `c1ccc(CCCn2cc(-c3ccc(-c4ccc(Oc5ccccc5)cc4)cc3)nn2)cc1` [4-(4'-Phenoxy-biphenyl-4-yl)-1-(3-phenyl-propyl)-1H-[1,2,3]triazole], the IC50 was greater than 30 µM.
Consider `O=C(O)c1ccc(Cn2cc(-c3ccc(-c4ccccc4)cc3)nn2)c([N+](=O)[O-])c1` [4-(4-Biphenyl-4-yl-[1,2,3]triazol-1-ylmethyl)-3-nitro-benzoic acid], for which the half-inhibitory concentration (IC50) was 3.2 µM.
With `c1ccc(CCCn2cc(-c3ccc(-c4cc5ccccc5c5ccccc45)cc3)nn2)cc1` [4-(4-Phenanthren-9-yl-phenyl)-1-(3-phenyl-propyl)-1H-[1,2,3]triazole] the figure was greater than 30 µM; with `O=Cc1ccc(-c2c(Cc3ccccc3)nnn2CSc2ccccc2)cc1` [4-(5-Benzyl-3-phenylsulfanylmethyl-3H-[1,2,3]triazol-4-yl)-benzaldehyde], greater than 30 µM.
With `Cc1ccccc1CCn1cc(-c2ccc(-c3ccccc3COc3cc(C(F)(F)F)ccc3Cl)cc2)nn1` [4-[2'-(2-Chloro-5-trifluoromethyl-phenoxymethyl)-biphenyl-4-yl]-1-(2-o-tolyl-ethyl)-1H-[1,2,3]triazole] the figure was greater than 30 µM; with `FC(F)(F)c1ccc(Cl)c(OCc2ccccc2-c2ccc(-c3cn(CCCc4ccccc4)nn3)cc2)c1` [4-[2'-(2-Chloro-5-trifluoromethyl-phenoxymethyl)-biphenyl-4-yl]-1-(3-phenyl-propyl)-1H-[1,2,3]triazole], greater than 30 µM.
With `Cc1ccccc1CCn1cc(-c2ccc(-c3ccccc3COc3cccc4ccccc34)cc2)nn1` [4-[2'-(Naphthalen-1-yloxymethyl)-biphenyl-4-yl]-1-(2-o-tolyl-ethyl)-1H-[1,2,3]triazole] the figure was greater than 30 µM; with `c1ccc(CCCn2cc(-c3ccc(-c4ccccc4COc4cccc5ccccc45)cc3)nn2)cc1` [4-[2'-(Naphthalen-1-yloxymethyl)-biphenyl-4-yl]-1-(3-phenyl-propyl)-1H-[1,2,3]triazole], greater than 30 µM; with `O=C(O)c1ccc(S(=O)(=O)n2cc(-c3ccc(-c4ccccc4COc4cccc5ccccc45)cc3)nn2)cc1` [4-{4-[2'-(Naphthalen-1-yloxymethyl)-biphenyl-4-yl]-1,2,3]triazole-1-sulfonyl}-benzoic acid], greater than 30 µM.
Turning to `CN(C)c1cccc2c(S(=O)(=O)Nc3ccc(-c4ccc(-c5cn(CCCc6ccccc6)nn5)cc4)cc3)cccc12` [5-Dimethylamino-naphthalene-1-sulfonic acid{4'-[1-(3-phenyl-propyl)-1H-[1,2,3]triazol-4-yl]-biphenyl-4-yl}-amide], the concentration for half-maximal inhibition (IC50) is greater than 30 µM.
For `O=C(OCc1cn(CSc2ccccc2)nn1)c1ccccc1` [Benzoic acid 1-Phenylsulfanylmethyl-1H-[1,2,3]Triazol-4-ylmethyl Ester], the IC50 is greater than 30 µM.

For the origin of these results see BindingDB's records for doi:10.1021/jm101238d (University of Salerno, 2011).
